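48-hour exposure; five concentrations; linearly interpolated endpoints. GI50: concentration for 50% inhibition of growth.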 The source made the active and inactive calls. No stated cut-off is given here; in the data, active = GI50 up to about 1.1 µM and inactive = higher.
Key:
Test in all cases: NCI tumour cell line growth inhibition, 48 h
HOP-92 = system: HOP-92
NCI-H522 = system: NCI-H522
786-0 = system: 786-0
A549 = system: A549
T47D = system: T47D
SF-268 = system: SF-268
DU-145 = system: DU-145
M14 = system: M14
CCRF-CEM = system: CCRF-CEM
ACHN = system: ACHN
TK-10 = system: TK-10
IGROV-1 = system: IGROV-1
CAKI-1 = system: CAKI-1
UO-31 = system: UO-31
HCT-116 = system: HCT-116
SF-295 = system: SF-295
SNB-75 = system: SNB-75
RPMI-8226 = system: RPMI-8226
SK-MEL-5 = system: SK-MEL-5
KM-20L2 = system: KM-20L2

Measured: GI50

CNc1nc2n(CCO)c(-c3ccccc3)c(-c3ccccc3)nc-2c(=O)n1
inactive: HOP-92 > 50 µM | NCI-H522 > 50 µM | 786-0 > 50 µM | A549 > 50 µM | T47D > 50 µM | SF-268 > 50 µM | DU-145 > 50 µM | M14 > 50 µM | CCRF-CEM > 50 µM | ACHN > 50 µM | TK-10 > 50 µM | IGROV-1 > 50 µM | CAKI-1 > 50 µM | UO-31 > 50 µM | HCT-116 > 50 µM | SF-295 > 50 µM | SNB-75 > 50 µM | RPMI-8226 > 50 µM | SK-MEL-5 > 50 µM

c1cncc(C(Nc2cccc3cccnc23)Nc2cccc3cccnc23)c1
inactive: HOP-92 > 100 µM | NCI-H522 28.8 µM | 786-0 > 100 µM | A549 > 100 µM | T47D > 100 µM | SF-268 50.5 µM | DU-145 > 100 µM | M14 > 100 µM | CCRF-CEM 66.1 µM | ACHN > 100 µM | TK-10 > 100 µM | IGROV-1 > 100 µM | CAKI-1 53 µM | UO-31 83.8 µM | HCT-116 > 100 µM | SF-295 > 100 µM | SNB-75 37.8 µM | RPMI-8226 55.8 µM | SK-MEL-5 > 100 µM

C/N=C/N(C)c1c2ccccc2nc2ccccc12
inactive: HOP-92 64.7 µM | NCI-H522 > 100 µM | 786-0 > 100 µM | A549 > 100 µM | T47D 85.7 µM | SF-268 > 100 µM | DU-145 > 100 µM | M14 > 100 µM | CCRF-CEM > 100 µM | ACHN > 100 µM | TK-10 > 100 µM | IGROV-1 > 100 µM | CAKI-1 > 100 µM | UO-31 11.6 µM | HCT-116 > 100 µM | SF-295 > 100 µM | SNB-75 90.6 µM | RPMI-8226 > 100 µM | SK-MEL-5 > 100 µM

COc1ccc2c(CCNS(=O)(=O)c3ccccc3)c(C(C)=O)[nH]c2c1[N+](=O)[O-]
inactive: NCI-H522 > 100 µM | 786-0 77.8 µM | A549 > 100 µM | SF-268 53.3 µM | M14 > 100 µM | CCRF-CEM > 100 µM | ACHN > 100 µM | IGROV-1 > 100 µM | KM-20L2 > 100 µM | CAKI-1 > 10 µM | UO-31 > 100 µM | HCT-116 > 100 µM | SF-295 63.7 µM | RPMI-8226 > 100 µM

Nc1nc(Cl)c2ncn(Cc3ccccc3CCl)c2n1
inactive: HOP-92 6.52 µM | NCI-H522 2.98 µM | 786-0 16.9 µM | A549 22 µM | T47D 24.2 µM | SF-268 4.71 µM | DU-145 14.7 µM | M14 5.73 µM | CCRF-CEM 17.7 µM | ACHN 5.69 µM | TK-10 17.7 µM | IGROV-1 6.34 µM | CAKI-1 6.65 µM | UO-31 15.7 µM | HCT-116 3.95 µM | SF-295 7.4 µM | SNB-75 8.13 µM | RPMI-8226 11.3 µM | SK-MEL-5 8.55 µM

O=C(CCc1ccc(O)c(O)c1)NCCc1cc(O)cc(OCc2ccccc2)c1
inactive: HOP-92 36.5 µM | NCI-H522 5.14 µM | 786-0 45.7 µM | A549 52.6 µM | T47D 15.3 µM | SF-268 31.4 µM | DU-145 43.3 µM | M14 32.1 µM | CCRF-CEM 6.87 µM | ACHN 8.75 µM | TK-10 > 100 µM | IGROV-1 39.1 µM | CAKI-1 12.6 µM | UO-31 4.69 µM | HCT-116 33.5 µM | SF-295 46.7 µM | SNB-75 15.6 µM | RPMI-8226 9.04 µM | SK-MEL-5 13.5 µM
